Measured values: patent US6156757A, “1,2,3,4-tetrahydro-benzofuro[3,2-C]pyridine derivatives” (Janssen Pharmaceutica N.V., priority 1997, dated 2000)

Assays:
[1] = target: T1, cloned human α2C receptors (Homo sapiens, UniProt P18825); assay: In vitro binding affinity for α2C receptors (3H-rauwolscine competition binding); conditions: at a test concentration of 10^-8 M or less; CHO cell expressing cloned human α2C receptors
T1 construct: expressed in transfected cells; host or cells: CHO cells
T1 sequence (P18825 1-462): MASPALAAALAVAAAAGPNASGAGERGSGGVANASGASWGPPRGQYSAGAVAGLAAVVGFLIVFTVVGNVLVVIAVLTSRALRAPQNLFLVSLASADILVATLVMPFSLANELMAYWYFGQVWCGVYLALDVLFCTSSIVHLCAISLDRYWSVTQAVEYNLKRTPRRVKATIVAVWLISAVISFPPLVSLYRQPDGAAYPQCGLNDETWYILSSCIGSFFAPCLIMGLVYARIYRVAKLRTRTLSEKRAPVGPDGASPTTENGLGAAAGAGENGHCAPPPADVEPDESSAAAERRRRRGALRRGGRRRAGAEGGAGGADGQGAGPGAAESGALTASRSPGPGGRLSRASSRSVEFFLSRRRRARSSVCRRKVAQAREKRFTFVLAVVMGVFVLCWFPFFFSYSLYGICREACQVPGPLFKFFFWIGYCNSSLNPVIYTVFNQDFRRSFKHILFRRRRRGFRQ

[2] = target: T2, cloned human α2B receptors (Homo sapiens, UniProt P18089); assay: In vitro binding affinity for α2B receptors (3H-rauwolscine competition binding); conditions: at a test concentration of 10^-8 M or less; CHO cell expressing cloned human α2B receptors
T2 construct: expressed in transfected cells; host or cells: CHO cells
T2 sequence (P18089 1-450): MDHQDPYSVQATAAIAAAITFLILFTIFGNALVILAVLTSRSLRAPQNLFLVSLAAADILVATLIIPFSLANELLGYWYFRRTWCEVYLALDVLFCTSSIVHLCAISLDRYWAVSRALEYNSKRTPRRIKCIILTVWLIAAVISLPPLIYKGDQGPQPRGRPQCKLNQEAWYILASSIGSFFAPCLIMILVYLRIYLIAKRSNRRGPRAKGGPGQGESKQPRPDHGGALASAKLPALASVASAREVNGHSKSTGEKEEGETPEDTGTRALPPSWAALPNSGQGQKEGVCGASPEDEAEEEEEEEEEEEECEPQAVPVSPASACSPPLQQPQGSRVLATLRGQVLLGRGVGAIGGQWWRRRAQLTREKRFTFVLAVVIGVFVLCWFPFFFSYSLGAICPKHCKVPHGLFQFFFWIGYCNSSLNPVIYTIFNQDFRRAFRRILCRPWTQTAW
Experimental: (§1) The interaction of the compounds of formula (I) with α2 receptors was assessed in in vitro radioligand binding experiments.
(§2) In general, a low concentration of a radioligand with a high binding affinity for a particular receptor is incubated with a sample of a tissue preparation enriched in a particular receptor or with a preparation of cells expressing cloned human receptors in a buffered medium. During the incubation, the radioligand binds to the receptor. When equilibrium of binding is reached, the receptor bound radioactivity is separated from the non-bound radioactivity, and the receptor bound activity is counted. The interaction of the test compounds with the receptor is assessed in competition binding experiments. Various concentrations of the test compound are added to the incubation mixture containing the receptor preparation and the radioligand. Binding of the radioligand will be inhibited by the test compound in proportion to its binding affinity and its concentration.
The radioligand used for α2B receptor binding is ^3 H-rauwolscine and the receptor preparation used is the CHO cell expressing cloned human α2B receptors.

α2 -adrenoceptor = assay: Xylazine-induced loss of righting reflex in rats; format: in vivo; conditions: one hour before xylazine 15 mg/kg i.v., male rats, lowest tested dose at which at least 66% of animals showed no loss of righting reflex
Experimental: This test is based upon the fact that centrally acting α2 -adrenoceptor antagonists reverse the loss of righting reflex induced by an intravenous injection of the α2 agonist xylazine. One hour before injection of xylazine (15 mg/kg, i.v.), male rats (200-250 g) were pretreated with a test compound (er os (p.o.) or subcutaneously (s.c.)) or solvent.

[3] = target: T3, cloned human α2A receptors (Homo sapiens, UniProt P08913); assay: In vitro binding affinity for α2A receptors (3H-rauwolscine competition binding); conditions: at a test concentration of 10^-8 M or less; CHO cell expressing cloned human α2A receptors
T3 sequence (P08913 1-465): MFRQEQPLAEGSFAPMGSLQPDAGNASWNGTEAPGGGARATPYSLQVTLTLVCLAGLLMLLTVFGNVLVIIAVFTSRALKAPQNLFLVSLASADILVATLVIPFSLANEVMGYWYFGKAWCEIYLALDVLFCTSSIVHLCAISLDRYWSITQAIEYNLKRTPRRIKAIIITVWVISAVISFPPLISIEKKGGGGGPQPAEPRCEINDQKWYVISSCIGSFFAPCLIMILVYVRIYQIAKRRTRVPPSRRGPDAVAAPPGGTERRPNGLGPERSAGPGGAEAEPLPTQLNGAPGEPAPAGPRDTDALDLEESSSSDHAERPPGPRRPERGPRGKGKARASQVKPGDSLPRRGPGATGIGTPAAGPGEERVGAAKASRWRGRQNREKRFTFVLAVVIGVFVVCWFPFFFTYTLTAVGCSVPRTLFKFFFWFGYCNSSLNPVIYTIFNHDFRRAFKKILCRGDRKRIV
Experimental: as §1, §2
The radioligand used for α2A receptor binding is ^3 H-rauwolscine and the receptor preparation used is the Chinese Hamster Ovary (CHO) cell expressing cloned human α2A receptors.

Structure (SMILES) | inhibition at up to 0.01 µM [1] [%] | inhibition at up to 0.01 µM [2] [%] | LAD in mg/kg (lowest active dose for xylazine antagonism) (α2 -adrenoceptor; p.o.) [mg/kg] | inhibition [3] [%] | LAD in mg/kg (lowest active dose for xylazine antagonism) (α2 -adrenoceptor; s.c.) [mg/kg]
Cc1nc2sc3ccccc3n2c(=O)c1CCN1CCc2oc3ccccc3c2C1 [Compound 62] | > 50 | > 50 | 10.00 | > 50 | 
Cc1nc2c(C)cccn2c(=O)c1CCN1CCc2oc3ccccc3c2C1 [Compound 33] | > 50 | > 50 |  | > 50 | 10.00
Cc1nc2ccc(Br)cn2c(=O)c1CCN1CCc2oc3ccccc3c2C1 [Compound 31] |  | > 50 |  |  | 0.16
CSc1nc(C)c(CCN2CCc3oc4ccccc4c3C2)c(=O)n1C [Compound 56] |  | > 50 |  |  | 
Cc1nc2n(C)c(C)cn2c(=O)c1CCN1CCc2oc3ccccc3c2C1 [Compound 30] |  | > 50 |  |  | 2.50
O=c1[nH]c2ccccc2n1CCN1CCc2oc3ccccc3c2C1 [Compound 52] | > 50 | > 50 |  | > 50 | 10.00
O=c1c(CCN2CCc3oc4ccccc4c3C2)c(-c2ccccc2)nc2n1CCCC2 [Compound 10] | > 50 | > 50 |  | > 50 | 10.00
O=c1[nH]c2ccccc2c(=O)n1CCCCN1CCc2oc3ccccc3c2C1 [Compound 63] | > 50 | > 50 |  | > 50 | 
Cc1nc2ccccn2c(=O)c1CCN1CCc2oc3ccccc3c2C1 [Compound 66] | > 50 | > 50 |  | > 50 | 0.63
O=c1[nH]c2ccccc2n1CCCN1CCc2oc3ccccc3c2C1 [Compound 53] | > 50 | > 50 |  | > 50 | 
